Laboratory results taken from US8518912B2, “Phosphonic acid derivates and their use as P2Y12 receptor antagonists” (Actelion Pharmaceuticals Ltd., priority 2008, dated 2013).

Each molecule was assayed against T1, human P2Y12 receptor (Homo sapiens, UniProt Q9H244) (assay: P2Y12 receptor binding assay). Conditions: CHO cells with recombinant human P2Y12 receptor; tritium-labeled 2-methyl-S-ADP; 2 hours at RT.
T1 construct: expressed in transfected cells; host or cells: Chinese Hamster Ovary (CHO) cells
T1 sequence (Q9H244 whole entry): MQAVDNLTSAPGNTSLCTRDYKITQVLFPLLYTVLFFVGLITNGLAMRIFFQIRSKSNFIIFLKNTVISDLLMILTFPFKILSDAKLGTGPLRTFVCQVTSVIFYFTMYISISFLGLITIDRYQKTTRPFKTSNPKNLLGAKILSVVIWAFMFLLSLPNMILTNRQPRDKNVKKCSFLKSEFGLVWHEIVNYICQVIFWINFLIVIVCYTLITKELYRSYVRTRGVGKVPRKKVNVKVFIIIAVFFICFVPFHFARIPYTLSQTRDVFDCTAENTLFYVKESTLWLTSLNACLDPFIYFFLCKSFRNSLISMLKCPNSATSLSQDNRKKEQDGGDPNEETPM
Protocol: Chinese Hamster Ovary (CHO) cells with recombinant expression of the human P2Y12 receptor were cultured in 24 well cell-culture plates. Cells were washed three times with binding buffer (50 mM Tris pH 7.4, 100 mM NaCl, […], 0.5% BSA). The cells were then incubated with 0.5 ml per well binding buffer containing tritium-labeled 2-methyl-thio-adenosine 5′-diphosphate (2-methyl-S-ADP) (between 100,000 and 300,000 dpm per well) and various concentrations of test compounds. After incubation at RT for 2 hours, cells were washed three times with binding buffer. Then, cells were solubilized by addition of 0.5 ml solubilization buffer (SDS, NaOH, EDTA). The content of each well was then transferred into beta-counter vials and 2.0 ml of Ultima Gold Scintillation liquid was added.

SMILES	IC50 [nM]
CCCCOC(=O)N1CCN(C(=O)[C@H](CP(=O)(OCOC(=O)OC)OCOC(=O)OC)NC(=O)c2cc(N3CC[C@H](OC)C3)nc(-c3ccccc3)n2)CC1 [Example 93, 4-((R)-3-[Bis-(methoxycarbonyloxy-methoxy)-phosphoryl]-2-{[6-((S)-3-methoxy-pyrrolidin-1-yl)-2-phenyl-pyrimidine-4-carbonyl]-amino}-propionyl)-piperazine-1-carboxylic acid butyl ester]	3.5
CCCCOC(=O)N1CCN(C(=O)[C@H](CP(=O)(OCOC(=O)CCC)OCOC(=O)CCC)NC(=O)c2cc(N3CC[C@H](OC)C3)nc(-c3ccccc3)n2)CC1 [Example 78, 4-((R)-3-(Bis-butyryloxymethoxy-phosphoryl)-2-{[6-((S)-3-methoxy-pyrrolidin-1-yl)-2-phenyl-pyrimidine-4-carbonyl]-amino}-propionyl)-piperazine-1-carboxylic acid butyl ester]	7
CCCCOC(=O)N1CCN(C(=O)[C@H](CP(=O)(O[C@@H](C)C(=O)OCC)O[C@@H](C)C(=O)OCC)NC(=O)c2cc(N3CC[C@H](OC)C3)nc(-c3ccccc3)n2)CC1 [Example 107, 4-((R)-3-[Bis-((S)-1-ethoxycarbonyl-ethoxy)-phosphoryl]-2-{[6-((S)-3-methoxy-pyrrolidin-1-yl)-2-phenyl-pyrimidine-4-carbonyl]-amino}-propionyl)-piperazine-1-carboxylic acid butyl ester]	153
CCCCOC(=O)N1CCN(C(=O)[C@H](CP(=O)(O)O)NC(=O)c2cc(NCC)nc(-c3ccccc3)n2)CC1 [Example 16, 4-{(R)-2-[(6-ethylamino-2-phenyl-pyrimidine-4-carbonyl)-amino]-3-phosphono-propionyl}-piperazine-1-carboxylic acid butyl ester]	4.5
CCCCOC(=O)N1CCN(C(=O)[C@H](CP(=O)(NC(C)(C)C(=O)OCC)NC(C)(C)C(=O)OCC)NC(=O)c2cc(N3CC[C@H](OC)C3)nc(-c3ccccc3)n2)CC1 [Example 92, N,N′-Bis-(2-ethoxycarbonyl-prop-2-yl)-2-{(R)-[6-((S)-3-methoxy-pyrrolidin-1-yl)-2-phenyl-pyrimidine-4-carbonyl]-amino}-3-oxo-3-(4-butoxy-carbonyl-piperazin-1-yl)-propyl-phosphonic acid diamide]	42
CCCCOC(=O)N1CCN(C(=O)[C@H](CP(=O)(OCOC(=O)OC(C)C)OCOC(=O)OC(C)C)NC(=O)c2cc(N3CC[C@H](OC)C3)nc(-c3ccccc3)n2)CC1 [Example 95, 4-((R)-3-[Bis-(isopropoxycarbonyloxy-methoxy)-phosphoryl]-2-{[6-((S)-3-methoxy-pyrrolidin-1-yl)-2-phenyl-pyrimidine-4-carbonyl]-amino}-propionyl)-piperazine-1-carboxylic acid butyl ester]	34
CCOC(=O)N1CCN(C(=O)[C@H](CP(=O)(OCOC(C)=O)OCOC(C)=O)NC(=O)c2cc(N3CC[C@H](OC)C3)nc(-c3ccccc3)n2)CC1 [Example 120, 4-((R)-3-[Bis-(acetoxy-methoxy)-phosphoryl]-2-{[6-((S)-3-methoxy-pyrrolidin-1-yl)-2-phenyl-pyrimidine-4-carbonyl]-amino}-propionyl)-piperazine-1-carboxylic acid ethyl ester]	7
CCCCOC(=O)N1CCN(C(=O)[C@H](CP(=O)(N[C@H](C(=O)OC)c2ccccc2)N[C@H](C(=O)OC)c2ccccc2)NC(=O)c2cc(N3CC[C@H](OC)C3)nc(-c3ccccc3)n2)CC1 [Example 88, N,N′-Bis-((S)-1-methoxycarbonyl-1-phenyl-methyl)-2-{(R)-[6-((S)-3-methoxy-pyrrolidin-1-yl)-2-phenyl-pyrimidine-4-carbonyl]-amino}-3-oxo-3-(4-butoxy-carbonyl-piperazin-1-yl)-propyl-phosphonic acid diamide]	22

More lines, in order of falling IC50, values ahead:

IC50 [nM]	SMILES
78	CCCCOC(=O)N1CCN(C(=O)[C@H](CP(=O)(O)O)NC(=O)c2cc(O[C@H]3CCOC3)nc(-c3ccccc3)n2)CC1 [Example 37, 4-[(R)-2-({2-phenyl-6-[(S)-(tetrahydro-furan-3-yl)oxy]-pyrimidine-4-carbonyl}-amino)-3-phosphono-propionyl]-piperazine-1-carboxylic acid butyl ester]
69	CCCCOC(=O)N1CCN(C(=O)[C@@H](CCCP(=O)(O)O)NC(=O)c2cc(N3CC[C@H](OC)C3)nc(-c3ccccc3)n2)CC1 [Example 63, 4-((R)-2-{[6-((S)-3-Methoxy-pyrrolidin-1-yl)-2-phenyl-pyrimidine-4-carbonyl]-amino}-5-phosphono-pentanoyl)-piperazine-1-carboxylic acid butyl ester]
61	CCOC(=O)N1CCN(C(=O)[C@H](CP(=O)(O)O)NC(=O)c2cc(N3CC[C@H](OC)C3)nc(-c3ccccc3)n2)CC1C (stereo partly drawn) [Example 38, 4-((R)-2-{[6-((S)-3-methoxy-pyrrolidin-1-yl)-2-phenyl-pyrimidine-4-carbonyl]-amino}-3-phosphono-propionyl)-2-methyl-piperazine-1-carboxylic acid ethyl ester]
13	CCOC(=O)N1CCN(C(=O)[C@H](Cc2cccc(P(=O)(O)O)c2)NC(=O)c2cc(N3CC[C@H](OC)C3)nc(-c3ccccc3)n2)CC1 [Example 67, 4-[(S)-2-{[6-((S)-3-Methoxy-pyrrolidin-1-yl)-2-phenyl-pyrimidine-4-carbonyl]-amino}-3-(3-phosphono-phenyl)-propionyl]-piperazine-1-carboxylic acid ethyl ester]
13	CCCCOC(=O)N1CCN(C(=O)[C@H](CP(=O)(O)O)NC(=O)c2cc(-c3ccc(OC)cc3)nc(-c3ccccc3)n2)CC1 [Example 34, 4-((R)-2-{[6-(4-methoxy-phenyl)-2-phenyl-pyrimidine-4-carbonyl]-amino}-3-phosphono-propionyl)-piperazine-1-carboxylic acid butyl ester]
5.5	CCCCOC(=O)N1CCN(C(=O)[C@H](CP(=O)(O)O)NC(=O)c2cc(CCCOC)nc(-c3ccccc3)n2)CC1 [Example 45, 4-((R)-2-{[6-(3-methoxy-propyl)-2-phenyl-pyrimidine-4-carbonyl]-amino}-3-phosphono-propionyl)-piperazine-1-carboxylic acid butyl ester]
4.5	CCCCOC(=O)N1CCN(C(=O)C(NC(=O)c2cc(N3CC[C@H](OC)C3)nc(-c3ccccc3)n2)c2cccc(P(=O)(O)O)c2)CC1 (stereo partly drawn) [Example 71, 4-[2-{[6-((S)-3-Methoxy-pyrrolidin-1-yl)-2-phenyl-pyrimidine-4-carbonyl]-amino}-2-(3-phosphono-phenyl)-acetyl]-piperazine-1-carboxylic acid butyl ester]
3.1	CCCCOC(=O)N1CCN(C(=O)[C@H](CP2(=O)Nc3ccccc3CO2)NC(=O)c2cc(N3CC[C@H](OC)C3)nc(-c3ccccc3)n2)CC1 (mixture of isomers) [Example 103, 4-[(R)-2-{[6-((S)-3-Methoxy-pyrrolidin-1-yl)-2-phenyl-pyrimidine-4-carbonyl]-amino}-3-(2-oxo-1,4-dihydro-2H-2λ^5-benzo[d][1,3,2]oxazaphosphinin-2-yl)-propionyl]-piperazine-1-carboxylic acid butyl ester]
